{"source": "paper PMC5218480", "about": "(PLoS ONE, 2017)", "tested_on": "MV-4-11 cells", "assay": "Gene expression microarray analysis (Affymetrix PrimeView) and GSEA", "type": "cell-based, human", "parameters": "RFU PODN (11730768_x_at) / Fold change /veh PODN (11730768_x_at) / RFU LINC00158 (11744669_a_at) / Fold change /veh LINC00158 (11744669_a_at) / RFU DUSP10 (11751237_a_at) / Fold change /veh DUSP10 (11751237_a_at) / RFU ID3 (11757404_x_at) / Fold change /veh ID3 (11757404_x_at) / RFU PLEKHG5 (11737974_s_at) / Fold change /veh PLEKHG5 (11737974_s_at) / RFU LRRC4B (11730491_at) / Fold change /veh LRRC4B (11730491_at) / RFU GIMAP4 (11747438_a_at) / Fold change /veh GIMAP4 (11747438_a_at) / RFU KRT8 (11758183_x_at) / Fold change /veh KRT8 (11758183_x_at) / RFU CNN1 (11734310_a_at) / Fold change /veh CNN1 (11734310_a_at) / RFU VPS37D (11726825_at) / Fold change /veh VPS37D (11726825_at) / RFU C10orf10 (11716522_x_at) / Fold change /veh C10orf10 (11716522_x_at) / RFU KIR2DL2 /// KIR2DL4 /// KIR2DL5A /// KIR2DL5B /// KIR2DS1 /// KIR2DS2 /// KIR2DS3 /// KIR2DS4 /// KIR3DL3 /// KIR3DL3 /// KIR3DS1 (11738374_at) / Fold change /veh KIR2DL2 /// KIR2DL4 /// KIR2DL5A /// KIR2DL5B /// KIR2DS1 /// KIR2DS2 /// KIR2DS3 /// KIR2DS4 /// KIR3DL3 /// KIR3DL3 /// KIR3DS1 (11738374_at) / RFU C1QL1 (11718748_at) / Fold change /veh C1QL1 (11718748_at) / RFU TMPRSS4 (11747572_a_at) / Fold change /veh TMPRSS4 (11747572_a_at) / RFU HAMP (11756126_x_at) / Fold change /veh HAMP (11756126_x_at) / RFU RNFT2 (11725882_a_at) / Fold change /veh RNFT2 (11725882_a_at) / RFU NR4A2 (11747474_a_at) / Fold change /veh NR4A2 (11747474_a_at) / RFU ABCC12 (11746883_a_at) / Fold change /veh ABCC12 (11746883_a_at) / RFU TMEM136 (11760407_x_at) / Fold change /veh TMEM136 (11760407_x_at) / RFU CLDN22 /// WWC2 (11732394_at) / Fold change /veh CLDN22 /// WWC2 (11732394_at) / RFU HLA-DPB1 (11760878_x_at) / Fold change /veh HLA-DPB1 (11760878_x_at) / RFU SPINT1 (11716480_a_at) / Fold change /veh SPINT1 (11716480_a_at) / RFU GAP43 (11754022_s_at) / Fold change /veh GAP43 (11754022_s_at) / RFU A4GNT (11735810_at) / Fold change /veh A4GNT (11735810_at) / RFU PRB3 (11715151_x_at) / Fold change /veh PRB3 (11715151_x_at) / RFU TUBB4B (11761932_at) / Fold change /veh TUBB4B (11761932_at) / RFU CAPN14 (11732068_a_at) / Fold change /veh CAPN14 (11732068_a_at) / RFU TMCC2 (11721928_a_at) / Fold change /veh TMCC2 (11721928_a_at) / RFU IRGQ (11745062_a_at) / Fold change /veh IRGQ (11745062_a_at) / RFU FAM174B (11720279_a_at) / Fold change /veh FAM174B (11720279_a_at) / RFU TMPRSS4 (11748680_a_at) / Fold change /veh TMPRSS4 (11748680_a_at) / RFU FAM212B (11763350_a_at) / Fold change /veh FAM212B (11763350_a_at) / RFU PLEKHG5 (11743358_a_at) / Fold change /veh PLEKHG5 (11743358_a_at) / RFU ZSCAN30 (11745921_a_at) / Fold change /veh ZSCAN30 (11745921_a_at) / RFU CMKLR1 (11741424_a_at) / Fold change /veh CMKLR1 (11741424_a_at) / RFU LOC101060620 /// MAPK8IP1 (11723275_at) / Fold change /veh LOC101060620 /// MAPK8IP1 (11723275_at) / RFU SPTSSB (11747773_x_at) / Fold change /veh SPTSSB (11747773_x_at) / RFU PRSS12 (11739890_at) / Fold change /veh PRSS12 (11739890_at) / RFU BIN1 (11741810_x_at) / Fold change /veh BIN1 (11741810_x_at) / RFU WNT11 (11732464_a_at) / Fold change /veh WNT11 (11732464_a_at) / RFU C10orf10 (11716521_a_at) / Fold change /veh C10orf10 (11716521_a_at) / RFU C5orf56 (11738089_at) / Fold change /veh C5orf56 (11738089_at) / RFU CYB561 (11721691_x_at) / Fold change /veh CYB561 (11721691_x_at) / RFU ANKRD19P (11752326_a_at) / Fold change /veh ANKRD19P (11752326_a_at) / RFU OR2T12 /// OR2T33 /// OR2T8 (11738714_s_at) / Fold change /veh OR2T12 /// OR2T33 /// OR2T8 (11738714_s_at) / RFU VCAN (11748164_a_at) / Fold change /veh VCAN (11748164_a_at) / RFU JSRP1 (11732532_at) / Fold change /veh JSRP1 (11732532_at) / RFU KRTAP10-11 (11738290_x_at) / Fold change /veh KRTAP10-11 (11738290_x_at) / RFU MYO3A (11730013_a_at) / Fold change /veh MYO3A (11730013_a_at) / RFU EBF3 (11725865_a_at) / Fold change /veh EBF3 (11725865_a_at) / RFU CAMK2N1 (11719241_x_at) / Fold change /veh CAMK2N1 (11719241_x_at) / RFU C5orf56 (11738088_a_at) / Fold change /veh C5orf56 (11738088_a_at) / RFU OLFML3 (11715873_a_at) / Fold change /veh OLFML3 (11715873_a_at) / RFU LOC100653217 /// NTM (11731650_a_at) / Fold change /veh LOC100653217 /// NTM (11731650_a_at) / RFU MAPK11 (11762145_a_at) / Fold change /veh MAPK11 (11762145_a_at) / RFU FIZ1 (11724087_x_at) / Fold change /veh FIZ1 (11724087_x_at) / RFU OASL (11726364_x_at) / Fold change /veh OASL (11726364_x_at) / RFU SOX15 (11748057_x_at) / Fold change /veh SOX15 (11748057_x_at) / RFU CD79A (11719716_a_at) / Fold change /veh CD79A (11719716_a_at) / RFU HIST1H1D (11736915_at) / Fold change /veh HIST1H1D (11736915_at) / RFU CASKIN2 (11723855_a_at) / Fold change /veh CASKIN2 (11723855_a_at) / RFU LOC730098 (11760151_x_at) / Fold change /veh LOC730098 (11760151_x_at) / RFU OR4N2 (11742367_at) / Fold change /veh OR4N2 (11742367_at) / RFU PRRT2 (11749266_a_at) / Fold change /veh PRRT2 (11749266_a_at) / RFU SNX32 (11753110_a_at) / Fold change /veh SNX32 (11753110_a_at) / RFU CDHR5 (11726645_a_at) / Fold change /veh CDHR5 (11726645_a_at) / RFU RCAN1 (11760418_a_at) / Fold change /veh RCAN1 (11760418_a_at) / RFU FAM167A (11723789_a_at) / Fold change /veh FAM167A (11723789_a_at) / RFU FAM26E (11764081_at) / Fold change /veh FAM26E (11764081_at) / RFU ISYNA1 (11749810_s_at) / Fold change /veh ISYNA1 (11749810_s_at) / RFU ACY1 (11761880_at) / Fold change /veh ACY1 (11761880_at) / RFU 11764098_at / Fold change /veh 11764098_at / RFU SAMD14 (11745864_x_at) / Fold change /veh SAMD14 (11745864_x_at) / RFU NPB (11741838_a_at) / Fold change /veh NPB (11741838_a_at) / RFU TMPRSS6 (11731388_a_at) / Fold change /veh TMPRSS6 (11731388_a_at) / RFU KRTAP10-2 (11738614_at) / Fold change /veh KRTAP10-2 (11738614_at) / RFU ARHGAP8 /// PRR5-ARHGAP8 (11727945_x_at) / Fold change /veh ARHGAP8 /// PRR5-ARHGAP8 (11727945_x_at) / RFU KRTAP5-7 /// NADSYN1 (11734609_at) / Fold change /veh KRTAP5-7 /// NADSYN1 (11734609_at) / RFU RASL12 (11751679_a_at) / Fold change /veh RASL12 (11751679_a_at) / RFU CDKN2B (11736163_a_at) / Fold change /veh CDKN2B (11736163_a_at) / RFU PRF1 (11729649_at) / Fold change /veh PRF1 (11729649_at) / RFU, ZNF638 /// ZNF638-IT1 / Fold change vs veh, ZNF638 /// ZNF638-IT1 / RFU, PANK3 / Fold change vs veh, PANK3 / RFU, SH3YL1 / Fold change vs veh, SH3YL1 / RFU, ZEB2 / Fold change vs veh, ZEB2 / RFU, NRIP1 / Fold change vs veh, NRIP1 / RFU, PTTG1IP / Fold change vs veh, PTTG1IP / RFU, CAPN2 / Fold change vs veh, CAPN2 / RFU, MED14 / Fold change vs veh, MED14 / RFU, SNORA58 / Fold change vs veh, SNORA58 / RFU, C1orf63 / Fold change vs veh, C1orf63 / RFU, LRRFIP1 / Fold change vs veh, LRRFIP1 / RFU, NDUFAF7 / Fold change vs veh, NDUFAF7 / RFU, SLC12A2 / Fold change vs veh, SLC12A2 / RFU, IBTK / Fold change vs veh, IBTK / RFU, ESF1 / Fold change vs veh, ESF1 / Fold change vs veh, TMEM50B / RFU, TAOK1 / Fold change vs veh, TAOK1 / RFU, ACBD3 / Fold change vs veh, ACBD3 / RFU, TMA16 / Fold change vs veh, TMA16 / RFU, RWDD3 / Fold change vs veh, RWDD3 / RFU, BCAT1 / Fold change vs veh, BCAT1 / RFU, EDEM3 / Fold change vs veh, EDEM3 / RFU, TMEM33 / Fold change vs veh, TMEM33 / RFU, WDR75 / Fold change vs veh, WDR75 / RFU, AHCTF1 / Fold change vs veh, AHCTF1 / RFU, TFRC / Fold change vs veh, TFRC / RFU, ZDHHC17 / Fold change vs veh, ZDHHC17 / RFU, NOM1 / Fold change vs veh, NOM1 / RFU, ARL8B / Fold change vs veh, ARL8B / RFU, ZBTB11 / Fold change vs veh, ZBTB11 / RFU, TAMM41 / Fold change vs veh, TAMM41 / RFU, KIAA1704 /// LOC100996395 / Fold change vs veh, KIAA1704 /// LOC100996395 / RFU, ING1 / Fold change vs veh, ING1 / RFU, TRMT61B / Fold change vs veh, TRMT61B / RFU, FUBP3 / Fold change vs veh, FUBP3 / RFU, TP53 / Fold change vs veh, TP53 / RFU, TNKS2 / Fold change vs veh, TNKS2 / RFU, ZFP14 / Fold change vs veh, ZFP14 / RFU, ACTR2 / Fold change vs veh, ACTR2 / RFU, PPP3R1 / Fold change vs veh, PPP3R1 / RFU, PIK3R1 / Fold change vs veh, PIK3R1 / RFU, HNRNPA1 / Fold change vs veh, HNRNPA1 / RFU, RNF170 / Fold change vs veh, RNF170 / RFU, ZNF28 / Fold change vs veh, ZNF28 / RFU, RNGTT / Fold change vs veh, RNGTT / RFU, OGT / Fold change vs veh, OGT / RFU, BRD1 / Fold change vs veh, BRD1 / RFU, MARS / Fold change vs veh, MARS / RFU, ZNF655 / Fold change vs veh, ZNF655 / RFU, FAHD1 / Fold change vs veh, FAHD1 / RFU, BDP1 / Fold change vs veh, BDP1 / RFU, LRRCC1 / Fold change vs veh, LRRCC1 / RFU, ARID1A / Fold change vs veh, ARID1A / RFU, ZNF146 / Fold change vs veh, ZNF146 / RFU, ZNF330 / Fold change vs veh, ZNF330 / RFU, GPN3 / Fold change vs veh, GPN3 / RFU, C9orf123 / Fold change vs veh, C9orf123 / RFU, N4BP2L2 / Fold change vs veh, N4BP2L2 / RFU, ARFIP1 / Fold change vs veh, ARFIP1 / RFU, FAM179B / Fold change vs veh, FAM179B / RFU, BCL10 / Fold change vs veh, BCL10 / RFU, UHRF1BP1L / Fold change vs veh, UHRF1BP1L / RFU, BET1 / Fold change vs veh, BET1 / RFU, CNOT2 / Fold change vs veh, CNOT2 / RFU, ZNF268 / Fold change vs veh, ZNF268 / Fold change vs veh, ZNF507 / RFU, DGCR2 / Fold change vs veh, DGCR2 / RFU, WDSUB1 / Fold change vs veh, WDSUB1 / Fold change vs veh, HSP90B1 /// MIR3652 / RFU, ADSS / Fold change vs veh, ADSS / RFU, GK / Fold change vs veh, GK / RFU, ZNF148 / Fold change vs veh, ZNF148 / RFU, TAF9 / Fold change vs veh, TAF9 / RFU, SLC1A5 / Fold change vs veh, SLC1A5 / RFU, SLMO2 / Fold change vs veh, SLMO2 / RFU, ABCC4 / Fold change vs veh, ABCC4 / RFU, LOC101060439 /// RAP1B / Fold change vs veh, LOC101060439 /// RAP1B / RFU, RFX7 / Fold change vs veh, RFX7 / RFU, GTPBP10 / Fold change vs veh, GTPBP10 / RFU, CNEP1R1 / Fold change vs veh, CNEP1R1 / RFU, BIVM-ERCC5 /// ERCC5 / Fold change vs veh, BIVM-ERCC5 /// ERCC5 / RFU, ILF3 / Fold change vs veh, ILF3 / RFU 11762660_at / Fold change /veh 11762660_at / RFU VCAN (11757783_s_at) / Fold change /veh VCAN (11757783_s_at) / RFU DDX43 (11728927_at) / Fold change /veh DDX43 (11728927_at) / RFU KRT8 (11758188_x_at) / Fold change /veh KRT8 (11758188_x_at) / RFU NKD1 (11759106_at) / Fold change /veh NKD1 (11759106_at) / RFU SRD5A1 (11742802_a_at) / Fold change /veh SRD5A1 (11742802_a_at) / RFU TPSAB1 /// TPSB2 (11721975_s_at) / Fold change /veh TPSAB1 /// TPSB2 (11721975_s_at) / RFU GSTM3 (11746129_a_at) / Fold change /veh GSTM3 (11746129_a_at) / RFU IL23R (11737362_x_at) / Fold change /veh IL23R (11737362_x_at) / RFU TMEM51 (11727254_a_at) / Fold change /veh TMEM51 (11727254_a_at) / RFU PIWIL2 (11732686_x_at) / Fold change /veh PIWIL2 (11732686_x_at) / RFU ORM1 (11744905_x_at) / Fold change /veh ORM1 (11744905_x_at) / RFU CCDC152 (11743942_at) / Fold change /veh CCDC152 (11743942_at) / RFU ECM1 (11717891_a_at) / Fold change /veh ECM1 (11717891_a_at) / RFU IL23R (11748794_a_at) / Fold change /veh IL23R (11748794_a_at) / RFU TNFAIP8L3 (11732012_x_at) / Fold change /veh TNFAIP8L3 (11732012_x_at) / RFU MBOAT4 (11741988_at) / Fold change /veh MBOAT4 (11741988_at) / RFU 11764193_at / Fold change /veh 11764193_at / RFU TMEM53 (11763286_at) / Fold change /veh TMEM53 (11763286_at) / RFU MAGEB2 (11727129_at) / Fold change /veh MAGEB2 (11727129_at) / RFU TMEM200A (11744735_a_at) / Fold change /veh TMEM200A (11744735_a_at) / RFU CCDC152 (11751479_a_at) / Fold change /veh CCDC152 (11751479_a_at) / RFU FAM211A (11726209_a_at) / Fold change /veh FAM211A (11726209_a_at) / RFU RGS16 (11746705_a_at) / Fold change /veh RGS16 (11746705_a_at) / RFU VCAN (11755009_s_at) / Fold change /veh VCAN (11755009_s_at) / RFU RHOB (11743442_s_at) / Fold change /veh RHOB (11743442_s_at) / RFU RGS16 (11720943_a_at) / Fold change /veh RGS16 (11720943_a_at) / RFU RGS16 (11720944_at) / Fold change /veh RGS16 (11720944_at) / RFU, VPS4B / Fold change vs veh, VPS4B / RFU, CREB1 / Fold change vs veh, CREB1 / RFU, DNAJC13 / Fold change vs veh, DNAJC13 / RFU, GNAQ / Fold change vs veh, GNAQ / RFU, CDK5R1 / Fold change vs veh, CDK5R1 / RFU, ZRANB3 / Fold change vs veh, ZRANB3 / RFU, CUL4A / Fold change vs veh, CUL4A / RFU, CCNY / Fold change vs veh, CCNY / RFU, UFL1 / Fold change vs veh, UFL1 / RFU, COG3 / Fold change vs veh, COG3 / RFU, DIAPH2 / Fold change vs veh, DIAPH2 / RFU, SKA2 / Fold change vs veh, SKA2 / RFU, AFF3 / Fold change vs veh, AFF3 / RFU, LMF1 / Fold change vs veh, LMF1 / RFU, IPO11 / Fold change vs veh, IPO11 / RFU, DFFB / Fold change vs veh, DFFB / RFU, FOXP1 / Fold change vs veh, FOXP1 / RFU, CARD8 / Fold change vs veh, CARD8 / RFU, STRN3 / Fold change vs veh, STRN3 / RFU, ADK / Fold change vs veh, ADK / RFU, RASSF2 / Fold change vs veh, RASSF2 / RFU, WIPF1 / Fold change vs veh, WIPF1 / RFU, LARP1B / Fold change vs veh, LARP1B / RFU, RASA1 / Fold change vs veh, RASA1 / RFU, RB1 / Fold change vs veh, RB1 / RFU, PPFIA1 / Fold change vs veh, PPFIA1 / RFU, MAT2A / Fold change vs veh, MAT2A / RFU, CCT5 / Fold change vs veh, CCT5 / RFU, WDR92 / Fold change vs veh, WDR92 / RFU, CUX1 / Fold change vs veh, CUX1 / RFU, TTC7A / Fold change vs veh, TTC7A / RFU, TMEM135 / Fold change vs veh, TMEM135 / RFU, DEPTOR / Fold change vs veh, DEPTOR / RFU, CPM / Fold change vs veh, CPM / RFU, DNAJB6 / Fold change vs veh, DNAJB6 / RFU, CACNA2D3 / Fold change vs veh, CACNA2D3 / RFU, DTX4 / Fold change vs veh, DTX4 / RFU, TFCP2 / Fold change vs veh, TFCP2 / RFU, GMCL1 /// GMCL1P1 / Fold change vs veh, GMCL1 /// GMCL1P1 / RFU, AEBP2 / Fold change vs veh, AEBP2 / RFU, SNHG1 /// SNORD22 /// SNORD25 /// SNORD26 /// SNORD27 /// SNORD28 /// SNORD29 /// SNORD31 / Fold change vs veh, SNHG1 /// SNORD22 /// SNORD25 /// SNORD26 /// SNORD27 /// SNORD28 /// SNORD29 /// SNORD31 / Fold change (Aza/veh), C12orf56 (ProbeSet 11735607_a_at) / Fold change (ACY-1035/veh), C12orf56 (ProbeSet 11735607_a_at) / Fold change (Aza/veh), FGFR1OP (ProbeSet 11751329_s_at) / Fold change (ACY-1035/veh), FGFR1OP (ProbeSet 11751329_s_at) / Fold change (Aza/veh), VPS36 (ProbeSet 11739960_a_at) / Fold change (ACY-1035/veh), VPS36 (ProbeSet 11739960_a_at) / RFU SYPL1 (11715823_x_at) / Fold change /veh SYPL1 (11715823_x_at) / RFU IGFBP7 (11715501_s_at) / Fold change /veh IGFBP7 (11715501_s_at) / RFU REEP3 (11722064_at) / Fold change /veh REEP3 (11722064_at) / RFU IGLL1 (11728026_x_at) / Fold change /veh IGLL1 (11728026_x_at): dose or concentration left out as unconfirmed", "details": "MV-4-11 cells, 48 hours", "data": [{"smiles": "Nc1ccc(-c2cccs2)cc1NC(=O)c1ccc2c(c1)cc(C1CC1)n2CCN1CCOCC1", "note": "[ACY-1035]", "values": [{"measurement": "RFU C5orf56 (11738089_at)", "result": 10.10, "unit": "RFU"}]}]}
